US8986696B2, “Trans-capsular administration of p38 map kinase inhibitors into orthopedic joints” (DePuy Mitek, Inc., priority 2007, dated 2015)

System: injured cartilage explants, NO production
Assay: drop tower design model: NO production
Type: cell-based, bovine
Conditions: cocktail of cytokines
Excerpt: The device comprises a vertical rail that guides a sliding weight from 0.1 kg to 3 kg directly onto a force transducer which is situated at the bottom of the device. A sphere-shaped 2 mm indenter resting on a specimen is located at the bottom of the vertical rail. The indenter is held by a stop screw. The specimen is rigidly attached to a tissue holder underneath the indenter, to avoid side movements, the specimen is rigidly attached to the tissue holder. In this manner, the force transducer transduces a force indirectly onto the specimen. Adjusting the weight of a mass and height from which the mass drops varies the magnitude of the intended impact. […]
In the first method, bovine or human PBMCs were freshly prepared using Ficoll gradient by Lampire Biological Laboratories, Inc. PBMCs in RPMI w/10% FCS at delivery were spun down at 1500 rpm for twenty minutes and the cell pellet was washed twice with 1×PBS to wash off the residual Ficoll. […] Each conditioned medium was assessed for levels of pro-inflammatory cytokines to ensure their secretion from PBMC. […]
Nitrate/Nitrite was measured using the Griess reaction (Green L. C. et al., “Analysis of Nitrate, Nitrite, and [15N]nitrate in Biological Fluids,” Anal. Biochem. 126: 131-138 (1982)) with a Nitrate/Nitrite Colorimetric Assay Kit (Cayman Chemicals), as described in Example III above.

SMILES: OCCC#Cc1nc(-c2ccc(F)cc2)c(-c2ccncc2)n1CCCc1ccccc1 [JNJ 3026582 (RWJ 67657), 4-[4-(4-fluorophenyl)-1-(3-phenylpropyl)-5-(4-pyridinyl)-1H-imidazol-2-yl]-3-butyn-1-ol]
- NO production, inhibition: dose-dependently inhibited
